# Experimental data reported in patent publication US10106515B2, “1-(cyclopent-2-en-1-yl)-3-(2-hydroxy-3-(arylsulfonyl)phenyl)urea derivatives as CXCR2 inhibitors” (GLAXOSMITHKLINE INTELLECTUAL PROPERTY DEVELOPMENT LIMITED, priority 2014, dated 2018).
# Counter-ions that a name gives are not always drawn.
# Molecular target: T1, recombinant human CXCR2 (Homo sapiens, UniProt P25025)
# T1 construct: TEV protease site; Gal4-VP16 transcription factor
# T1 sequence (P25025 1-360): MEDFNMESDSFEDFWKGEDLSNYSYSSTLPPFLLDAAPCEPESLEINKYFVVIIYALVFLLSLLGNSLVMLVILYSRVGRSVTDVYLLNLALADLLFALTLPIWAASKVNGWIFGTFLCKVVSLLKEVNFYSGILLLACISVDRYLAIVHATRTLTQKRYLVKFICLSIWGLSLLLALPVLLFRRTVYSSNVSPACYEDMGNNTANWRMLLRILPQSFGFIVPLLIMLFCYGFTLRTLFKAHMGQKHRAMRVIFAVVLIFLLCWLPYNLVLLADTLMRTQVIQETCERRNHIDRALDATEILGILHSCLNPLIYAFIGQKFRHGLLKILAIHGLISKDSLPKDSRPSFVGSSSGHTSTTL
# Assay: CXCR2 Tango assay
# Format: cell-based
# Details: mean pIC50 of multiple test results; stimulated with 80 nM hCXCL1; reporter gene blue/green emission ratio; read-out: pIC50 (CXCR2 Tango assay) (converted)
# Excerpt: The assay measures ligand-induced activation of the receptor CXCR2 in a stable cell line containing the recombinant human CXCR2 linked to a TEV protease site and a Gal4-VP16 transcription factor (Invitrogen). Ligand binding to the receptor results in the recruitment of arrestin proteins (tagged with protease) to the receptor and triggers the release of a tethered transcription factor. The transcription factor enters the nucleus and activates the transcription of the reporter gene. The ability of a compound to inhibit CXCR2 activation is indirectly assessed by measuring the reporter gene activity.
# A vial of cryopreserved cells was removed from liquid nitrogen and rapidly thawed in a water bath at 37° C. with gentle agitation. The contents of the vial were transferred drop-wise into Thawing Medium in a sterile 15 ml conical tube and then centrifuged at 1000 rpm for 4-5 min. Then the cell pellets were resuspended in Assay Medium at a density of ˜200,000 cells/ml. All test compounds were dissolved in DMSO at a concentration of 10 mM and were prepared in 100% DMSO to provide 10 point dose response curves. A reference CXCR2 antagonist was added to wells in row 2, columns 1-5 & 7-11. Exemplified compounds 1-4, 7, 8-10, 13-22, 24-26, 28-30, 32, 33, 36, 37, 40, 42-44. 95-110, 115-118, 120, 121, 125, 126, 129-134, 137, 138, 140, 142, 147-149, 153-157, 159-162, 163-166, 168, 170, 172, 174-180 and 202 were tested using the CXCR2 antagonist sodium 3-chloro-6-(3-(2,3-dichlorophenyl)ureido)-2-sulfamoylphenolate as reference compound (Reference Compound 1) (published International patent application WO2002/079122). […] Test compounds were added to wells in row 2, columns 13-17 & 19-23 and rows 3-15, columns 1-5 & 7-11/13-17 & 19-23 (columns 6 and 18 as positive controls and un-stimulated controls respectively; columns 12 and 24 as cell-free control). Compounds in solution were added to the assay plate (Greiner 781090) using an Echo (Labcyte) concentration-response program (50 nl/well). The cell-free, un-stimulated and positive controls were loaded with 50 nl/well pure DMSO to ensure that the DMSO concentration was constant across the plate for all assays. Using Multi-drop Combi (Thermo) with standard cassette, 50 μl of Assay Medium was added to each well in the cell-free controls (columns 12 and 24); 50 μl of the cell suspension without hCXCL1 (a CXCR2 ligand) was added to each well in column 18 of the plate (˜10,000 cells per well); and 50 μl of the cell suspension with 80 nM hCXCL1 was added to the rest of wells of the plate (˜10,000 cells per well). The cells were incubated overnight at 37° C./5% CO2. 10 μl of 6× substrate mixture (LiveBLAzer™-FRET B/G substrate (CCF4-AM) Cat # K1096 from Invitrogen, Inc.) was added to each well using Multi-drop Combi (Thermo) with small-tube cassette and the plates incubated at room temperature for 2 h in the dark. The plate was finally read on EnVision using one excitation channel (409 nm) and two emission channels (460 nm and 530 nm).
# The blue/green emission ratio (460 nm/530 nm) was calculated for each well, by dividing the background-subtracted Blue emission values by the background-subtracted Green emission values. The dose response curve was based on sigmoidal dose-response model. All ratio data was normalized based upon the maximum emission ratio of positive control (hCXCL1) and minimum emission ratio of negative control (DMSO) on each plate. The intrinsic activity (IA) of each compound would be the normalized percentage of its maximum response after curve fitting.
# All exemplified compounds (except for Compounds 203 and 204) were tested in the CXCR2 Tango assay or a similar assay described above. The data mentioned below represents a mean pIC 50 value of multiple test results. It is understood that the data illustrated below may have reasonable variation depending on the specific conditions and procedures used by the person conducting the testing.
row,SMILES,IC50
1,"CC(C)(C(F)(F)F)S(=O)(=O)c1c(Cl)ccc(NC(=O)NC2C=CCC2)c1O (stereo not drawn) [Compound 1, 1-(4-chloro-2-hydroxy-3-((1,1,1-trifluoro-2-methylpropan-2-yl)sulfonyl)phenyl)-3-(cyclopent-2-en-1-yl)urea]",≤ 10 nM
2,"CC(C)(C(F)(F)F)S(=O)(=O)c1c(Cl)ccc(NC(=O)NC2CCC=C2Cl)c1O (stereo not drawn) [Compound 2, 1-(4-chloro-2-hydroxy-3-((1,1,1-trifluoro-2-methylpropan-2-yl)sulfonyl)phenyl)-3-(2-chlorocyclopent-2-en-1-yl)urea]",≤ 1 nM
3,"CC(C)(C)S(=O)(=O)c1c(Cl)ccc(NC(=O)NC2CCC=C2Cl)c1O (stereo not drawn) [Compound 3, 1-(3-(tert-butylsulfonyl)-4-chloro-2-hydroxyphenyl)-3-(2-chlorocyclopent-2-en-1-yl)urea]",≤ 10 nM
4,"CC(C)(c1ccccn1)S(=O)(=O)c1c(Cl)ccc(NC(=O)NC2CCC=C2Cl)c1O (stereo not drawn) [Compound 4, 1-(4-chloro-2-hydroxy-3-((2-(pyridin-2-yl)propan-2-yl)sulfonyl)phenyl)-3-(2-chlorocyclopent-2-en-1-yl)urea, trifluoroacetic acid salt]",≤ 10 nM
5,"CC(C)(CCO)S(=O)(=O)c1c(Cl)ccc(NC(=O)N[C@@H]2CCC=C2Cl)c1O [Compound 6, (R)-1-(4-chloro-2-hydroxy-3-((4-hydroxy-2-methylbutan-2-yl)sulfonyl)phenyl)-3-(2-chlorocyclopent-2-en-1-yl)urea]",≤ 1 nM
6,"CC(C)(CF)S(=O)(=O)c1c(Cl)ccc(NC(=O)NC2C=CCC2)c1O (stereo not drawn) [Compound 9, 1-(4-chloro-3-((1-fluoro-2-methylpropan-2-yl)sulfonyl)-2-hydroxyphenyl)-3-(cyclopent-2-en-1-yl)urea]",≤ 10 nM
7,"CC(C)(CF)S(=O)(=O)c1c(Cl)ccc(NC(=O)NC2CCC=C2Cl)c1O (stereo not drawn) [Compound 10, 1-(4-chloro-3-((1-fluoro-2-methylpropan-2-yl)sulfonyl)-2-hydroxyphenyl)-3-(2-chlorocyclopent-2-en-1-yl)urea]",≤ 10 nM
8,"CC(C)(CO)S(=O)(=O)c1c(Cl)ccc(NC(=O)N[C@@H]2CCC=C2Cl)c1O [Compound 12, (R)-1-(4-chloro-2-hydroxy-3-((1-hydroxy-2-methylpropan-2-yl)sulfonyl)phenyl)-3-(2-chlorocyclopent-2-en-1-yl)urea]",≤ 10 nM
9,"CC(C)(F)S(=O)(=O)c1c(Cl)ccc(NC(=O)NC2C=CCC2)c1O (stereo not drawn) [Compound 14, 1-(4-chloro-3-((2-fluoropropan-2-yl)sulfonyl)-2-hydroxyphenyl)-3-(cyclopent-2-en-1-yl)urea]",≤ 10 nM
10,"CC(C)(F)S(=O)(=O)c1c(Cl)ccc(NC(=O)NC2CCC=C2Cl)c1O (stereo not drawn) [Compound 15, 1-(4-chloro-3-((2-fluoropropan-2-yl)sulfonyl)-2-hydroxyphenyl)-3-(2-chlorocyclopent-2-en-1-yl)urea]",≤ 10 nM

# More lines, now with the values ahead:
row,IC50,SMILES
1,≤ 1 nM,"CC1=CCC[C@H]1NC(=O)Nc1ccc(Cl)c(S(=O)(=O)[C@H]2CC[C@H](O)C2)c1O (racemic) [Compound 45, (±)-trans-1-(4-chloro-2-hydroxy-3-((3-hydroxycyclopentyl)sulfonyl)phenyl)-3-((R)-2-methylcyclopent-2-en-1-yl)urea]"
2,≤ 1 nM,"CC1=CCC[C@H]1NC(=O)Nc1ccc(Cl)c(S(=O)(=O)C2CCC[C@@H]2O)c1O (mixture of isomers) [Compound 51, (±)trans-1-(4-chloro-2-hydroxy-3-((2-hydroxycyclopent-yl)sulfonyl)phenyl)-3-((R)-2-methylcyclopent-2-en-1-yl)urea, trifluoroacetic acid salt]"
3,≤ 10 nM,"COC1CCCCC1S(=O)(=O)c1c(Cl)ccc(NC(=O)NC2CCC=C2C)c1O (racemic) [Compound 150, (±)trans-1-(4-chloro-2-hydroxy-3-((2-methoxycyclohex-yl)sulfonyl)phenyl)-3-((R)-2-methylcyclopent-2-en-1-yl)urea]"
4,≤ 10 nM,"C[C@]1(S(=O)(=O)c2c(Cl)ccc(NC(=O)N[C@@H]3CCC=C3Cl)c2O)CCOC1 (single isomer, unassigned) [Compound 197]"
5,≤ 10 nM,"C[C@@]1(S(=O)(=O)c2c(Cl)ccc(NC(=O)N[C@@H]3CCC=C3Cl)c2O)CCOC1 (single isomer, unassigned) [Compound 198]"
6,≤ 1 nM,"CO[C@@H]1CC[C@@H](S(=O)(=O)c2c(Cl)ccc(NC(=O)N[C@@H]3CCC=C3C)c2O)C1 (stereo in doubt) [Compound 143, trans-1-(4-chloro-2-hydroxy-3-((3-methoxycyclopent-yl)sulfonyl)phenyl)-3-((R)-2-methylcyclopent-2-en-1-yl)urea]"
7,≤ 10 nM,"CC1=C(Cl)CCC1NC(=O)Nc1ccc(Cl)c(S(=O)(=O)C(C)C)c1O (stereo not drawn) [Compound 16, 1-(4-chloro-2-hydroxy-3-(isopropylsulfonyl)phenyl)-3-(3-chloro-2-methylcyclopent-2-en-1-yl)urea]"
8,≤ 10 nM,"CC1=C(F)CCC1NC(=O)Nc1ccc(Cl)c(S(=O)(=O)C(C)C)c1O (stereo not drawn) [Compound 17, 1-(4-chloro-2-hydroxy-3-(isopropylsulfonyl)phenyl)-3-(3-fluoro-2-methylcyclopent-2-en-1-yl)urea]"
9,≤ 10 nM,"CC(C)S(=O)(=O)c1c(Cl)ccc(NC(=O)NC2C=CCC2)c1O (stereo not drawn) [Compound 18, 1-(4-chloro-2-hydroxy-3-(isopropylsulfonyl)phenyl)-3-(cyclopent-2-en-1-yl)urea]"
10,≤ 1 nM,"CC(C)S(=O)(=O)c1c(Cl)ccc(NC(=O)NC2CCC=C2Cl)c1O (stereo not drawn) [Compound 21, 1-(4-chloro-2-hydroxy-3-(isopropylsulfonyl)phenyl)-3-(2-chlorocyclopent-2-en-1-yl)urea]"
11,≤ 10 nM,"CC(C)S(=O)(=O)c1c(Cl)ccc(NC(=O)NC2CCC=C2F)c1O (stereo not drawn) [Compound 22, 1-(4-chloro-2-hydroxy-3-(isopropylsulfonyl)phenyl)-3-(2-fluorocyclopent-2-en-1-yl)urea]"
12,≤ 10 nM,"CC(c1ccccn1)S(=O)(=O)c1c(Cl)ccc(NC(=O)NC2C=CCC2)c1O (stereo not drawn) [Compound 24, 1-(4-chloro-2-hydroxy-3-((1-(pyridin-2-yl)ethyl)sulfonyl)phenyl)-3-(cyclopent-2-en-1-yl)urea, trifluoroacetic acid salt]"
13,≤ 10 nM,"CC1=CCCC1NC(=O)Nc1ccc(Cl)c(S(=O)(=O)C(C)c2ccccn2)c1O (stereo not drawn) [Compound 25, 1-(4-chloro-2-hydroxy-3-((1-(pyridin-2-yl)ethyl)sulfonyl)phenyl)-3-(2-methylcyclopent-2-en-1-yl)urea, trifluoroacetic acid salt]"
14,≤ 10 nM,"CC(c1ccccn1)S(=O)(=O)c1c(Cl)ccc(NC(=O)NC2CCC=C2Cl)c1O (stereo not drawn) [Compound 26, 1-(4-chloro-2-hydroxy-3-((1-(pyridin-2-yl)ethyl)sulfonyl)phenyl)-3-(2-chlorocyclopent-2-en-1-yl)urea]"
